The text below walks through data of patent US11578084B2, “Condensed ring compounds having dopamine D3 receptor antagonistic effect” (Shionogi & Co., Ltd., priority 2018, dated 2023).

Read-outs that look alike come from different tables or passages of the source.

One data set concerns the target hERG channel (IKr) (Homo sapiens (Human), UniProt Q12809). The data set can be described thus: hERG test (whole cell patch clamp, IKr). The class given is cell-based. The following applies: human, CHO cells expressing hERG channel, pH 7.4, 3 μM, tail peak current. (In general: hERG is a cardiac potassium channel; its block is linked to QT prolongation.)
Data set [1] deals with human recombinant dopamine D2 receptor (Homo sapiens (Human), UniProt P14416). Briefly: Test of binding inhibition for dopamine D2 receptor ([3H]-Methylspiperone SPA). The following applies: Jump-In HEK cell membranes, read-out: hD2_Ki. A digest of the protocol:
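Scintillation proximity competition binding of [3H]-Methylspiperone to Jump-In HEK membranes expressing human D2 (2 μg protein/well) on WGA SPA beads (0.2 mg/well), 120 min at 25° C.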

Data set [2] deals with human recombinant dopamine D3 receptor (Homo sapiens (Human), UniProt P35462). Briefly: Test of binding inhibition for dopamine D3 receptor ([3H]-Methylspiperone SPA). Conditions: Jump-In HEK cell membranes, 2 nM [3H]-Methylspiperone, 120 min at 25° C.; read-out: hD3_Ki. A digest of the protocol: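 SPA radioligand binding on Jump-In HEK membranes expressing human D3 receptor (4 µg/well) with 2 nM [3H]-methylspiperone (final), incubated 120 min at 25 °C. Non-specific binding defined with 10 µM butaclamol. Percent inhibition computed against total and non-specific binding; Ki from dose-response curves.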

Data set [3] deals with human MDR1-expressing cells (Homo sapiens (Human), UniProt P08183). The data set can be described thus: P-gp substrate test (Transwell, MDR1-expressing cells vs parent cells). The format is in vitro ADME. Conditions: efflux ratio of MDR1-expressing cells compared with parent cells. As for the experimental part:
Test Example 14: P-Gp Substrate Test The compound of the present invention was added to one side of Transwell (registered trademark, CORNING) where human MDR1-expressing cells or parent cells have been monolayer-cultured. The cells were reacted for a constant time. The membrane permeability coefficients from the apical side toward the basolateral side (A→B) and from the basolateral side toward the apical side (B→A) were calculated for the MDR1-expressing cells or the parent cells, and the efflux ratio (ER; ratio of the membrane permeability coefficients of B→A and A→B) values of the MDR1-expressing cells and the parent cells were calculated. The efflux ratio (ER values) of the MDR1-expressing cells and the parent cells were compared to confirm whether or not the compound of the present invention would be a P-gp substrate.

Data set [4] is described as follows: Solubility test (1% DMSO addition, JP-1 fluid or JP-2 fluid). Conditions: 25 °C, kinetic from dmso stock. The class given is physicochemical. How it is done: Test Example 11: Solubility Test The solubility of the compound of the present invention was determined under 1% DMSO addition conditions. A 10 mmol/L solution of the compound was prepared with DMSO. 2 μL of the solution of the compound of the present invention was respectively added to 198 μL of JP-1 fluid or JP-2 fluid, or 6 μL of the solution of the compound of the present invention was respectively added to 594 μL of JP-1 fluid or JP-2 fluid. The mixture was left standing for 16 hours at 25° C. (condition 1) or shaking at room temperature for 3 hours (condition 2), and the mixture was vacuum-filtered. The filtrates were diluted 10- or 100-fold with methanol/water=1/[…]) or acetonitrile/methanol/water=1/1/[…]/V), and concentrations in the filtrates were measured by the absolute calibration curve method using LC/MS or solid-phase extraction (SPE)/MS. The dilution rate or dilution solvent was changed as necessary. The composition of the JP-1 fluid was as below. Water was added to 2.0 g of sodium chloride and 7.0 mL of hydrochloric acid to reach 1000 mL. The composition of the JP-2 fluid was as below. Composition 1. 3.40 g of potassium dihydrogen phosphate and 3.55 g of anhydrous disodium hydrogen phosphate were dissolved in water to reach 1000 mL. Composition 2. 1 volume of water was added to 1 volume of the solution in which 3.40 g of potassium dihydrogen phosphate and 3.55 g of anhydrous disodium hydrogen phosphate were dissolved in water to reach 1000 mL.

Data set [5] concerns the target human ether-a-go-go related gene (hERG) channel (Homo sapiens (Human), UniProt Q12809). The data set can be described thus: hERG test (whole cell patch clamp, IKr). The format is cell-based. Conditions: 3 μM, CHO cells expressing hERG, tail peak current.
[6] abbreviates: 1.2 nM [3H]-Methylspiperone, 120 min at 25° C.
Setting [7] is: pH 1.2, simulated gastric fluid, JP-1 fluid, read-out: Solubility JP-1.
Where [8] appears, read: pH 6.8, aqueous buffer, JP-2 fluid, read-out: Solubility JP-2.

Chain of human recombinant dopamine D2 receptor (P14416 whole entry): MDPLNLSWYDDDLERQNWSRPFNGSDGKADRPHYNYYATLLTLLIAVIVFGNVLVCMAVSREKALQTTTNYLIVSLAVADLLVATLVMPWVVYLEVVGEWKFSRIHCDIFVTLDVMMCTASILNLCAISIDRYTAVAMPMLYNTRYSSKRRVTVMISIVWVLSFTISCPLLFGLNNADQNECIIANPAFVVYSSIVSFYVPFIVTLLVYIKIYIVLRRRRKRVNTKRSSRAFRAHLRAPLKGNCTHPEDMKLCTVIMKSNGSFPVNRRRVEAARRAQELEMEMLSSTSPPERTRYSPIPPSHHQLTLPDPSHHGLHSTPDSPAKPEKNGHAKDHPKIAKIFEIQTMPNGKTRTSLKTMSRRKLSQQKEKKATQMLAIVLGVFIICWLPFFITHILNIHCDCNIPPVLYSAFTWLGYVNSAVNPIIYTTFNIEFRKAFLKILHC
Chain of human MDR1-expressing cells (P08183 whole entry): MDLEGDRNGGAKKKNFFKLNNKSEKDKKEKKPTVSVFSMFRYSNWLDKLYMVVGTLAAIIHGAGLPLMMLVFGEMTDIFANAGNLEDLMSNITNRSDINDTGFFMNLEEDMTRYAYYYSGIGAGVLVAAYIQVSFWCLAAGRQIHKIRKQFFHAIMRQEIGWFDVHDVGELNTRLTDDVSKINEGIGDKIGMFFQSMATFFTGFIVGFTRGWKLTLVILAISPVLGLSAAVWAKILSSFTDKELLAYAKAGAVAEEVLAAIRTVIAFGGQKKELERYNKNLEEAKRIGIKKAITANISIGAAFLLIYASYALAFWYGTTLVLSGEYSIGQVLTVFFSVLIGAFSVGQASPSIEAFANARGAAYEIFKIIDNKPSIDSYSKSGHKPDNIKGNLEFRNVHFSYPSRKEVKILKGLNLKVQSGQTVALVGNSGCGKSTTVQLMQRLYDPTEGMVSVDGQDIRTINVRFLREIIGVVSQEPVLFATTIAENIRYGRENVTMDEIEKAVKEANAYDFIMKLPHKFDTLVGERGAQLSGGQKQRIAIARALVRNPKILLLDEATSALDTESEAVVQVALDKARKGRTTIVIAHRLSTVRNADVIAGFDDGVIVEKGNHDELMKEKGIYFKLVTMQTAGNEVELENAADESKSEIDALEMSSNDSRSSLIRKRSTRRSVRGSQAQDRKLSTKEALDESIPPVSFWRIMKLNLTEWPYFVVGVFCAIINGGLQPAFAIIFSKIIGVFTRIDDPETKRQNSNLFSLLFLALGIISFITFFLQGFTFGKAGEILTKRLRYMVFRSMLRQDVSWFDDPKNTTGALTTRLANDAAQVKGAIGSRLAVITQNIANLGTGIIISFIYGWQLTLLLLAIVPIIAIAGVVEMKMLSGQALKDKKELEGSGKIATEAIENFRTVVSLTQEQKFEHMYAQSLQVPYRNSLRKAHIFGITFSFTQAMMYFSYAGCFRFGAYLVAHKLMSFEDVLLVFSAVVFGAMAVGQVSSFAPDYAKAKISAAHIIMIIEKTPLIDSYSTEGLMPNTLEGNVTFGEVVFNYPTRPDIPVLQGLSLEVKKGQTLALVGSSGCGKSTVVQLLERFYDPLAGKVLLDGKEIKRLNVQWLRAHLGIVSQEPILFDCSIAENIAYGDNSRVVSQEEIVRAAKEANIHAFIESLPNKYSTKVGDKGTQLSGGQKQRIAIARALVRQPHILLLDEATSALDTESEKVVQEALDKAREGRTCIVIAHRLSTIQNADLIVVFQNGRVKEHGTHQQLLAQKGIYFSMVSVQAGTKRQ
Chain of hERG channel (IKr) (Q12809 whole entry): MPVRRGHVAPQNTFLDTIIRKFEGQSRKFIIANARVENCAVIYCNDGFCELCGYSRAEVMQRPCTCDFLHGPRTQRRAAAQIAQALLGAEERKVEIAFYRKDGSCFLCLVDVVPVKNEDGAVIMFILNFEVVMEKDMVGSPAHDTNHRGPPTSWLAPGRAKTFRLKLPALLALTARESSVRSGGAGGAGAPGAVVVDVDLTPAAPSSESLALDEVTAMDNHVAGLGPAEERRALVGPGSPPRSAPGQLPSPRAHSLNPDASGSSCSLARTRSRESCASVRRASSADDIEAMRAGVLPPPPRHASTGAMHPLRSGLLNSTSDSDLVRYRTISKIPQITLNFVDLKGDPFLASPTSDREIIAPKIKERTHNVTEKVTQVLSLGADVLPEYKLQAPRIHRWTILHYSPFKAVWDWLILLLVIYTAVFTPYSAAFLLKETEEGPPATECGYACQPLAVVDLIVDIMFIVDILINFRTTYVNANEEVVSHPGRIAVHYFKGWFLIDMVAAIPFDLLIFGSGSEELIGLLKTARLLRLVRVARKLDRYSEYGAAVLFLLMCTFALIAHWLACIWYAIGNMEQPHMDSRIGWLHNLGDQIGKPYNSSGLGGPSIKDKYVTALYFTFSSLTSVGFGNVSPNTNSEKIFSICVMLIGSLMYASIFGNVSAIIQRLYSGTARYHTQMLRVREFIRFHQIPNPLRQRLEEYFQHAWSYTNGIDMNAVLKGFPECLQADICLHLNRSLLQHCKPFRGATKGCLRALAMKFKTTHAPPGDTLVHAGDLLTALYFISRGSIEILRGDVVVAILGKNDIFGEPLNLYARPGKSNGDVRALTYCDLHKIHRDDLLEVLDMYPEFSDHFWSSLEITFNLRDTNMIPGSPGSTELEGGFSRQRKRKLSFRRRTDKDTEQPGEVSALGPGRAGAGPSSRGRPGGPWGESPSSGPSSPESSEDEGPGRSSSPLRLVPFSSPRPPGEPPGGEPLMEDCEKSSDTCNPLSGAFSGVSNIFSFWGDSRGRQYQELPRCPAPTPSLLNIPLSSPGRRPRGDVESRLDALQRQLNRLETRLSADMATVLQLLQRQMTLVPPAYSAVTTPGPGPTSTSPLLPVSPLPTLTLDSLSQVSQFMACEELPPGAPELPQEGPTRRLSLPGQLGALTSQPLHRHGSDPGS
Chain of human recombinant dopamine D3 receptor (P35462 whole entry): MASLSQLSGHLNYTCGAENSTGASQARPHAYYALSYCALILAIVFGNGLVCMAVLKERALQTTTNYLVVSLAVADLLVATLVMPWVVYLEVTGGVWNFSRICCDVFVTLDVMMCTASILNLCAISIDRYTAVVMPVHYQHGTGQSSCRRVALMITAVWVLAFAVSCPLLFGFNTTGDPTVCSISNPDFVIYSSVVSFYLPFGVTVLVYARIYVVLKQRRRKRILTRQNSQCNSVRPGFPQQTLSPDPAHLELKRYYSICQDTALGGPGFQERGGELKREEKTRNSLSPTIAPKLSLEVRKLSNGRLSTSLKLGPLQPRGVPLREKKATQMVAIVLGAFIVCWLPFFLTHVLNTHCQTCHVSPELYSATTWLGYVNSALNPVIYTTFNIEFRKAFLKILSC
Chain of human ether-a-go-go related gene (hERG) channel (Q12809 whole entry): as the sequence (Q12809 whole entry) above

As to `Cn1ncc(CC(=O)N[C@H]2CC[C@](F)(CCN3CCc4ccc(OCC(F)F)nc4CC3)CC2)n1` [Example I-031], on hERG channel (IKr), the inhibition at 3 µM is 23.8%. Also, the Ki was determined as 800 nM in data set [1] (setting [6]) and 0.19 nM in data set [2]. For the same compound, the “P-gp ER ratio” value in data set [3] stood at 1.5.
As to `Cc1ncc(OCC(=O)NC23CCC(CCN4CCc5nc(OCC(F)(F)F)sc5CC4)(CC2)OC3)cn1` [II-12], the results for the Ki in data set [1] ([3H]-Methylspiperone 1.2 nM) and in data set [2] were 1500 nM and 0.49 nM, respectively. In addition, the solubility in data set [4] (setting [7]) and in data set [4] (setting [8]) was more than 50 µM throughout.
Take `Cc1ncc(OCC(=O)NC23CCC(CCN4CCc5nc(OCC(F)(F)F)sc5CC4)(CC2)CC3)cn1` [II-9]: the Ki in data set [1] ([3H]-Methylspiperone 1.2 nM) was 960 nM; in data set [2], 0.12 nM. The solubility in data set [4] (setting [7]) and in data set [4] (setting [8]) was more than 50 µM each time.
With `CC(Oc1nc2c(s1)CCN(CC[C@H]1CC[C@H](NC(=O)c3cccc4nn(C)cc34)CC1)CC2)C(F)F` (single isomer, unassigned) [Example I-119], the “hERG inhibition(%) at 3 μM” value in data set [5] was determined as 23.1%. For the same compound, the Ki in data set [1] (setting [6]) was found to be 1200 nM; in data set [2], 0.11 nM.
`Cn1ncc(CC(=O)N[C@H]2CC[C@](F)(CCN3CCc4nc(OCC(C)(F)F)sc4CC3)CC2)n1` [I′-39] came in with an inhibition at 3 µM against hERG channel (IKr) of 17.3%. Moreover, the Ki in data set [1] ([3H]-Methylspiperone 1.2 nM) was 960 nM; in data set [2] it was 0.49 nM. Moreover, the “P-gp ER ratio” value in data set [3] was 1.9.
Compound `Cn1ncc(CC(=O)N[C@H]2CC[C@H](CCN3CCc4sc(OCC(C)(F)F)nc4C3)CC2)n1` [Example I-005] showed an inhibition at 3 µM on hERG channel (IKr) of 15.3%. The Ki is 720 nM in data set [1] (setting [6]) and 0.63 nM in data set [2]. For the same compound, the “P-gp ER ratio” value in data set [3] was found to be 1.5.
On to `Cn1cc2c(C(=O)NC34CCC(CCN5CCc6nc(OCC(F)(F)F)sc6CC5)(CC3)CC4)cccc2n1` [II-8], for which the Ki in data set [1] ([3H]-Methylspiperone 1.2 nM) turned out to be 1600 nM; in data set [2], 0.084 nM. Also, the solubility in data set [4] (setting [7]) and in data set [4] (setting [8]) was more than 50 µM each time.
With `Cn1cc2c(C(=O)NC34CCC(CCN5CCc6nc(OCC(F)(F)F)sc6CC5)(CC3)OC4)cccc2n1` [II-11], the Ki in data set [1] ([3H]-Methylspiperone 1.2 nM) was more than 2300 nM; in data set [2] it was 0.23 nM. For the same compound, the solubility in data set [4] (setting [7]) and in data set [4] (setting [8]) was more than 50 µM each time.
In the case of `COC(CN1CCc2sc(OCC(F)(F)F)nc2C1)[C@H]1CC[C@H](NC(=O)c2cccc3nn(C)cc23)CC1` (stereo partly shown) [Example I-186], at 3 µM the inhibition at hERG channel (IKr) was 16.8%. Also, the results for the Ki in data set [1] (setting [6]) and in data set [2] were 270 nM and 0.22 nM, respectively.
In turn, `Cc1nnc(CC(=O)N[C@H]2CC[C@](F)(CCN3CCc4ccc(OCC(C)(F)F)nc4CC3)CC2)s1` [Example I-018] registered an inhibition at 3 µM against hERG channel (IKr) of 33.8%. For the same compound, the figures for the Ki in data set [1] (setting [6]) and in data set [2] were 190 nM and 0.035 nM, respectively.
As to `Cc1nnc(CC(=O)N[C@H]2CC[C@H](CCN3CCc4ccc(OC(C)C)nc4CC3)CC2)s1` [Example I-007], at 3 µM the inhibition against hERG channel (IKr) was 33.7%. Also, the results for the Ki in data set [1] (setting [6]) and in data set [2] were 1500 nM and 0.68 nM, respectively.
On hERG channel (IKr), `Cn1cc2c(C(=O)N[C@H]3CC[C@H](CCN4CCc5sc(OCC(C)(F)F)nc5C4)CC3)c(F)ccc2n1` [Example I-103] had an inhibition at 3 µM of 26%. Further, the Ki in data set [1] (setting [6]) is 340 nM; in data set [2], 0.17 nM.
The matching figures for `Cn1cc2ccc(C(=O)N[C@H]3CC[C@H](CCN4CCc5nc(OCC(C)(F)F)sc5CC4)OC3)cc2n1` [Example I-066]: 14.3%, 770 nM and 0.37 nM.
The compound `Cn1cc2c(C(=O)NN3CCC(CCN4CCc5ccc(OCC(F)(F)F)nc5CC4)CC3)cccc2n1` [Example I-016] yielded an inhibition at 3 µM at hERG channel (IKr) of 19.1%. Moreover, the Ki in data set [1] (setting [6]) was 850 nM; in data set [2], 0.039 nM.
On the same counts, the results for `Cc1cnc(CC(=O)N[C@H]2CC[C@](F)(CCN3CCc4nc(OCC(F)F)sc4CC3)CC2)o1` [Example I-038] are 21.4%, more than 1700 nM and 0.81 nM.
In the case of `Cc1nnc(CC(=O)N[C@H]2CC[C@H](CCN3CCc4sc(C5CC(F)(F)C5)nc4C3)CC2)s1` [Example I-071], at 3 µM the inhibition against hERG channel (IKr) was 16.6%. The Ki in data set [1] (setting [6]) amounted to 450 nM; in data set [2] it was 0.16 nM.
`Cc1ncc(CC(=O)N[C@H]2CC[C@](F)(CCN3CCc4nc(OCC(C)(F)F)sc4CC3)CC2)o1` [Example I-043]: on hERG channel (IKr), the inhibition at 3 µM is 20.7%. In addition, the Ki was 970 nM in data set [1] (setting [6]) and 0.12 nM in data set [2].

As a reminder, the inhibition is the drop in the measured response relative to a control, in per cent. A higher inhibition goes with a strong effect. The solubility is the dissolved amount per volume that the medium holds.
